Results: patent US12588678B2, “Oxazoline compound, synthesis method therefor and application thereof” (NANKAI UNIVERSITY, priority 2019, dated 2026)

Experiments:
[1] = tested on: Tetranychus cinnabarinus mite eggs; assay: Activity against mite eggs, dipping method on bean seedling leaves; format: in vivo; settings: Tetranychus cinnabarinus, 96 h, checked after 4 days; for mortality at 10 µg/mL: read-out: mortality of mite eggs (%), 10 mg/L; for mortality at 100 µg/mL: read-out: mortality of mite eggs (%), 100 mg/L; for mortality at 200 µg/mL: read-out: mortality of mite eggs (%), 200 mg/L; for mortality at 0.1 µg/mL: read-out: mortality of mite eggs (%), 0.1 mg/L; for mortality at 1 µg/mL: read-out: mortality of mite eggs (%), 1 mg/L; for mortality at 0.001 µg/mL: read-out: mortality of mite eggs (%), 0.001 mg/L; for mortality at 0.01 µg/mL: read-out: mortality of mite eggs (%), 0.01 mg/L; for mortality at 0.5 µg/mL: read-out: mortality of mite eggs (%), 0.5 mg/L
Description: (§1) The assay examples are used to illustrate the acaricidal activity against Tetranychus cinnabarinus (mortality of mite larvae and mortality of mite eggs) of the compounds having the structure represented by formula (I), and the results are shown in tables 1 to 9, where mortality of mite larvae % =(number of dead mite larvae applied/total number of mite larvae applied)×100, and mortality of mite eggs %= (number of dead mite eggs applied/total number of mite eggs applied)×100.
Tetranychus cinnabarinus bred indoors on bean seedlings was used as a test subject by the dipping method. Move female adult mites onto the newly grown complete bean seedling leaves with two leaves, cut off the bean seedlings, place the bean seedlings in a greenhouse with illumination at 25° C. for laying eggs for 24 hours, then remove adult mites and keep mite eggs. After continuously culturing in the greenhouse for one day, completely soak the bean seedling leaves containing the acarid eggs into the prepared sample solution to be tested for 5-6 seconds by using tweezers, slightly throw off residual liquid, put the bean seedling leaves back to the culture cup, continuously culture for 4 days and then check the result. One of the plants was immersed in a solution containing no sample to be tested and the remaining additives were identical to the sample solution as a blank control. Each compound was replicated three times.

[2] = tested on: Tetranychus cinnabarinus mite larvae; assay: Larvicidal activity test, dipping method on bean seedling leaves; format: in vivo; settings: for mortality at 100 µg/mL / mortality at 200 µg/mL / mortality at 0.1 µg/mL / mortality at 1 µg/mL / mortality at 10 µg/mL / mortality at 0.001 µg/mL / mortality at 0.01 µg/mL / mortality at 0.5 µg/mL / mortality at 0.05 µg/mL: Tetranychus cinnabarinus, 96 h, checked after 4 days; for mortality at 100 µg/mL: read-out: mortality of mite larvae (%), 100 mg/L; for mortality at 200 µg/mL: read-out: mortality of mite larvae (%), 200 mg/L; for mortality at 0.1 µg/mL: read-out: mortality of mite larvae (%), 0.1 mg/L; for mortality at 1 µg/mL: read-out: mortality of mite larvae (%), 1 mg/L; for mortality at 10 µg/mL: read-out: mortality of mite larvae (%), 10 mg/L; for acaricidal activity compared with etoxazole: Tetranychus cinnabarinus eggs and larvae, etoxazole as reference; for mortality at 0.001 µg/mL: read-out: mortality of mite larvae (%), 0.001 mg/L; for mortality at 0.01 µg/mL: read-out: mortality of mite larvae (%), 0.01 mg/L; for mortality at 0.5 µg/mL: read-out: mortality of mite larvae (%), 0.5 mg/L; for mortality at 0.05 µg/mL: read-out: mortality of mite larvae (%), 0.05 mg/L
Description: as §1
Tetranychus cinnabarinus bred indoors on bean seedlings was used as a test subject by the dipping method. Move adult mites onto the newly grown complete bean seedling leaves with two leaves, cut off the bean seedlings, place the bean seedlings in a greenhouse with illumination at 25° C. for laying eggs for 24 hours, then remove adult mites and keep mite eggs. And continuously culture in the greenhouse for 5 days until mite eggs hatch into mite larvae (ensuring that the number of the mites on each tested leaf is not less than 60).
Completely immerse the bean seedling leaves containing the mite larvae into the sample solution to be detected with Tween at the prepared concentration for 5-6 seconds by using tweezers, slightly throw off residual liquid, put the bean seedling leaves back to the culture cup, continuously culture for 4 days and check the result. One of the plants was immersed in a solution containing no sample to be tested and the remaining additives were identical to the sample solution as a blank control. Each compound was replicated three times.

SMILES	mortality at 10 µg/mL [1] [%]	mortality at 100 µg/mL [1] [%]	mortality at 200 µg/mL [1] [%]	mortality at 100 µg/mL [2] [%]	mortality at 200 µg/mL [2] [%]	mortality at 0.1 µg/mL [1] [%]	mortality at 1 µg/mL [1] [%]	mortality at 0.1 µg/mL [2] [%]	mortality at 1 µg/mL [2] [%]	mortality at 10 µg/mL [2] [%]	mortality at 0.001 µg/mL [1] [%]	mortality at 0.01 µg/mL [1] [%]	mortality at 0.5 µg/mL [1] [%]	acaricidal activity compared with etoxazole [2]	mortality at 0.001 µg/mL [2] [%]	mortality at 0.01 µg/mL [2] [%]	mortality at 0.5 µg/mL [2] [%]	mortality at 0.05 µg/mL ([1]; read-out: mortality of mite eggs (%), 0.05 mg/L) [%]	mortality at 0.05 µg/mL [2] [%]
Fc1cccc(F)c1C1=NC(c2ccc(COc3ncccn3)cc2)CO1 (centres unmarked) [Compound R2-17]	70	100	100	60	90														
Fc1ccc(OCc2ccc(C3COC(c4c(F)cccc4F)=N3)cc2)cc1 (centres unmarked) [Compound R2-18]	96	100	100	100	100	85	90	70	80	88									
Fc1cccc(F)c1C1=NC(c2ccc(COc3ccc(Cl)cc3)cc2)CO1 (centres unmarked) [Compound R2-19]	100	100	100	100	100		90	85	88	90	10	32	80	higher acaricidal activity than etoxazole	8	30	72		
Fc1cccc(F)c1C1=NC(c2ccc(COc3ccc(Br)cc3)cc2)CO1 (centres unmarked) [Compound R2-20]	90	100	100	92	100		60		40	80									
Cc1ccc(OCc2ccc(C3COC(c4c(F)cccc4F)=N3)cc2)cc1 (centres unmarked) [Compound R2-22]	100	100	100	96	100	80	90		55	88									
Fc1cccc(F)c1C1=NC(c2ccc(COc3ccc(C(F)(F)F)cc3)cc2)CO1 (centres unmarked) [Compound R2-23]	90	90	100	100	100	75	85	75	80	95									
Fc1cccc(F)c1C1=NC(c2ccc(COc3ccc4ccccc4c3)cc2)CO1 (centres unmarked) [Compound R2-24]	95	100	100	100	100	70	80	85	100	100	28	50	85	higher acaricidal activity than etoxazole	20	50	80		
CS(=O)(=O)Oc1ccc(C2COC(c3c(F)cccc3F)=N2)cc1 (centres unmarked) [Compound R3-1]	90	95	100	100	100		70	50	80	100									
CCS(=O)(=O)Oc1ccc(C2COC(c3c(F)cccc3F)=N2)cc1 (centres unmarked) [Compound R3-2]	80	95	100	100	100		50		60	90									
CCCS(=O)(=O)Oc1ccc(C2COC(c3c(F)cccc3F)=N2)cc1 (centres unmarked) [Compound R3-3]	100	100	100	100	100	50	90	80	100	100			75	equivalent or better acaricidal activity compared with etoxazole			95	20	40
C=CS(=O)(=O)Oc1ccc(C2COC(c3c(F)cccc3F)=N2)cc1 (centres unmarked) [Compound R3-6]	60	80	100	80	100				60	80									
O=S(=O)(Oc1ccc(C2COC(c3c(F)cccc3F)=N2)cc1)c1ccc(F)cc1 (centres unmarked) [Compound R3-7]	90	100	100	100	100		60		50	90									
O=S(=O)(Oc1ccc(C2COC(c3c(F)cccc3F)=N2)cc1)c1ccc(Cl)cc1 (centres unmarked) [Compound R3-8]	90	95	100	100	100		70	60	85	98									
O=S(=O)(Oc1ccc(C2COC(c3c(F)cccc3F)=N2)cc1)c1ccc(Br)cc1 (centres unmarked) [Compound R3-9]	90	100	100	100	100	30	75	70	100	100			60	equivalent or better acaricidal activity compared with etoxazole			90		40
O=S(=O)(Oc1ccc(C2COC(c3c(F)cccc3F)=N2)cc1)c1ccc(I)cc1 (centres unmarked) [Compound R3-10]	85	100	100	100	100		60		65	88									
O=S(=O)(Oc1ccc(C2COC(c3c(F)cccc3F)=N2)cc1)c1ccccc1F (centres unmarked) [Compound R3-11]	80	95	100	100	100		50	50	80	90									
O=S(=O)(Oc1ccc(C2COC(c3c(F)cccc3F)=N2)cc1)c1cccc(F)c1 (centres unmarked) [Compound R3-12]	90	100	100	100	100		55		50	90									
